# Where a chain is given by its changes, count along the chain named. Names may count otherwise.
# T1: His‐EBF2 (Homo sapiens, UniProt Q9HAK2)
# T1 construct: His‐EBF2 plasmid was constructed by inserting the CDS of EBF2 into PET‐28a vector; His; made in house; host or cells: E. coli BL21 (DE3)
# T1 sequence (Q9HAK2 1-575): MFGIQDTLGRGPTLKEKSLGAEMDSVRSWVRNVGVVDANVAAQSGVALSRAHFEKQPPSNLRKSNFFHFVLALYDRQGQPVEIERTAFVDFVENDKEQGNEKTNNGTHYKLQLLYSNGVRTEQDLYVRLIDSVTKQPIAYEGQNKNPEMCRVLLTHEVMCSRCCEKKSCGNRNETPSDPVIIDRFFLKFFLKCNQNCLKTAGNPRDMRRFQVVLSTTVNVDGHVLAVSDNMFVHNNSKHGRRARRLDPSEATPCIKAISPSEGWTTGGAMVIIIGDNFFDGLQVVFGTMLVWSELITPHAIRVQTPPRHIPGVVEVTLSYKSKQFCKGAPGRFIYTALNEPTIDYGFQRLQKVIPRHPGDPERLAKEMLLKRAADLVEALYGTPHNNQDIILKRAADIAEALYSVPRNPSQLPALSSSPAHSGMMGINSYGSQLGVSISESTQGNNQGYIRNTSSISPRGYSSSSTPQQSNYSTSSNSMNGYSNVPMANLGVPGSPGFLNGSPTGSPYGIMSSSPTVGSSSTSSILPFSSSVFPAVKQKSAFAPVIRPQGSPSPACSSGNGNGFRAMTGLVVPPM
# B1: EBF2‐H239A: Flag-tagged EBF2-H239A; H239 is the site for H3K4me1 binding to EBF2 protein (protein)
# chain: T1 sequence (Q9HAK2 1-575) with H239A
# Experiments:
# [1] = test system: EBF2; assay: Peptide pull-down with SW1990 and PANC-1 protein extracts; format: binding, Human; details: biotin-labeled peptides, protein extracts from SW1990 and PANC-1 cells; in vitro; Figure 1B
# Protocol: Unmodified histone 3 (H3), H3K4me1 peptides were incubated with nuclear extract of SW1990 cells, separated by SDS‐PAGE gel, and subjected to mass spectrometry. Factors specifically associating with H3K4me1 were screened by peptide pulldown coupled with mass spectrometry analysis. Mass spectrometry‐based proteomic analysis yielded a plethora of putative H3K4me1‐associated proteins, including many known histone or DNA modifiers, readers, and chromatin remodelers (Table S1, Supporting Information). Given that KMT2D executes its antitumor function via catalyzing the formation of H3K4me1 in pancreatic cancer, we explored the genes associated with H3K4me1.
# The product was separated by sodium dodecyl sulfate‐polyacrylamide gel electrophoresis (SDS‐PAGE) with silver staining. Protein bands of interest were excised and subjected to electrospray‐ion trap tandem mass spectrometry (LCQ‐Deca, Finnigan).
# [2] = test system: His‐EBF2 fusion protein; assay: Isothermal titration calorimetry (ITC); format: binding; details: Figure 1E
# Protocol: His‐EBF2 plasmid was constructed by inserting the CDS of EBF2 into PET‐28a vector, transformed into E. coli BL21 (DE3), and cultured with isopropyl‐β‐D‐thiogalactoside (IPTG; Beyotime) at 16 °C for 12 h, […]. BL21 cells were collected and sonicated in cold PBS buffer, and His‐fusion proteins were purified with High Affinity Nickel beads (Genscript, Nanjing, China). The purity of His‐fusion proteins was evaluated by SDS‐PAGE.
# A MicroCal ITC‐200 system (Malvern Instruments Ltd., UK) was used for ITC assay. Briefly, the synthesized peptides (Genscript) and proteins were all subjected to extensive dialysis against PBS. Peptides at a concentration of 1 mM were loaded into the ITC syringe, and proteins at a concentration of 100 µM into the ITC cell. Then, every 2 µL of peptide was automatically injected into the cell at 25 °C. The results of binding isotherms were analyzed using the Origin 7.0 software package (Origin Lab).
# [3] = target: T1, His‐EBF2; assay: Peptide pull-down with purified His-EBF2 fusion protein; format: binding; details: purified His-EBF2 expressed in E. coli; Figure 1C
# Protocol: The CDS region of EBF2 gene was inserted into pET‐28a plasmid to express recombinant His‐tagged EBF2 fusion protein (His‐EBF2) in E. coli (Figure 1C).
# His‐EBF2 plasmid was constructed by inserting the CDS of EBF2 into PET‐28a vector, transformed into E. coli BL21 (DE3), and cultured with isopropyl‐β‐D‐thiogalactoside (IPTG; Beyotime) at 16 °C for 12 h, until the optical density (OD600) reached 0.5–0.6. BL21 cells were collected and sonicated in cold PBS buffer, and His‐fusion proteins were purified with High Affinity Nickel beads (Genscript, Nanjing, China). The purity of His‐fusion proteins was evaluated by SDS‐PAGE.
# [4] = target: recombinant His-tagged EBF2 fusion protein (human) (UniProt Q9HAK2); assay: MST; NT-647-NHS-labelled EBF2 at 100 nM in PBS with 0.05% Tween-20, pH 7.4; peptides 10 nM to 500 uM; Monolith NT.115
# [5] = test system: H3K4me1; assay: Co-IP of Flag-tagged EBF2-WT or EBF2-H239A with H3K4me1 in SW1990 cells; format: binding, Human; details: Co-IP on SW1990 cells; Figure S1B
# Protocol: Co‐immunoprecipitation assay was performed as described previously.^[ [61] ^] Briefly, SW1990 cells were transfected with indicated constructs or treated with GSK‐LSD1, washed with cold phosphate buffered saline (PBS), and lysed with cold cell lysis buffer. Then, the lysates were incubated with appropriate specific antibodies or normal rabbit IgG at 4 °C overnight in constant rotation, followed by the addition of protein A/G Sepharose beads and incubation for 2 h at 4 °C. The beads were then washed five times by the lysis buffer. Bead‐bound proteins were resolved by SDS‐PAGE and detected by immunoblotting using indicated antibodies.
molecule,measurement,setting,value
CNCCCC[C@H](NC(=O)[C@@H](NC(=O)[C@H](CCCNC(=N)N)NC(=O)[C@H](C)N)[C@@H](C)O)C(=O)N[C@@H](CCC(N)=O)C(=O)N[C@H](C(=O)N[C@@H](C)C(=O)N[C@@H](CCCNC(=N)N)C(=O)N[C@@H](CCCCN)C(=O)N[C@@H](CO)C(=O)N[C@H](C(=O)NCC(=O)NCC(=O)N[C@@H](CCCCN)C(=O)N[C@@H](C)C(=O)N1CCC[C@H]1C(=O)N[C@@H](CCCNC(=N)N)C(=O)N[C@@H](CCCCN)C(=O)N[C@@H](CCC(N)=O)C(=O)O)[C@@H](C)O)[C@@H](C)O [H3K4me1],preferential binding of EBF2 to peptide,[1],preferential binding of EBF2 to H3K4me1 over H3K4me3
same,"affinity of His-EBF2 to peptide, in words",[2],strong affinity
same,pull-down of purified His-EBF2 by peptide,[3],pulled down by H3K4me1 peptide
"H3K4me1 peptide (C-terminal biotin-tagged 19 amino acid N-terminal peptide of histone H3, mono-methylated on Lys 4) (from UniProt P68431 2-20)",Kd,[4],7.37 µM
B1,ability to bind H3K4me1 compared with EBF2-WT,[5],significantly weaker than that of EBF2‐WT
